The text below walks through data of a melting point compilation (Tetko et al.; mined from patent text by program, amines drawn as free bases though some values may be those of a salt).

The melting point is the temperature of the solid-liquid transition. In the case of `CC(C)c1ccc(N(Cc2ccc(N(C)C)cc2)C(=O)C2CCSc3ccccc32)cc1` (stereo unspecified), the melting point was 118 °C.
Molecule `NC(=O)c1ccc(OC2CCN(c3ccncc3)C2)cc1` (stereo unspecified) registered a melting point of 298 to 300 °C.
For `COc1ccc(C(=C/C=C/C(=O)NC(C)(C)CCCc2cccnc2)c2ccc(OC)cc2)cc1` the value was 144 to 145 °C; for `COC(=O)/C=C(\Cl)c1ccc(Cl)cc1`, 40 °C; for `CC1(C)OC(=O)C(Oc2cc(F)cc(F)c2)=C1c1ccc(S(C)(=O)=O)cc1`, 159 to 161 °C.
For `Cn1cc(C(=O)NCc2ccc(Cl)cc2)c(=O)c2cc(CO)oc21` the value was 229 to 230 °C; for `Cc1sc2c(c1C)C(c1ccc(Cl)cc1)=NC(CC(=O)N1CCCCC1)c1nnc(C)n1-2` (stereo unspecified), 260 to 262 °C; for `CCCCCCCCCCCCCCOc1ccc(CC(=O)Nc2ccc(CBr)cc2)cc1`, 110 to 115 °C.
For `COc1cccc(N2CCN(S(=O)(=O)c3cccc(/C=C/C(=O)NO)c3)CC2)c1` the value was 196 °C.
Molecule `O=c1nc(-c2ccccc2C(F)(F)F)sc2ccccc12` gave a melting point of 140 °C.
For `Cc1c(N2C[C@@H](NC(=O)C(F)(F)F)C(C)(C)C2)c(F)c(N)c2c(=O)c(C(=O)O)cn(C3CC3)c12` the value was 254 to 255 °C; for `N#CCCCCOc1ccc(C=Cc2ccncc2)cc1`, 85 to 87 °C; for `OCCCN1CCN(C(c2ccccc2)c2ccccc2)CC1`, 126 to 128 °C.
As for `O=C(NC[C@H]1CN(c2ccc3c(c2)CCCc2cn[nH]c2-3)C(=O)O1)c1ccccc1`, the melting point is 105 to 125 °C.
For `CCSc1ccc2c(c1)NC(=O)C2` the value was 125 to 126 °C; for `CCC(COC)Nc1nc(C)nc(N2CCc3cc(OC)cc(Cl)c32)c1C=O` (stereo unspecified), 150 to 153 °C; for `COC(=O)Cc1ccc(OCCNC(=O)C2Cc3ccccc3N2S(=O)(=O)c2ccc(-c3cc(C(F)(F)F)ccc3Cl)cc2)c(F)c1` (stereo unspecified), 56 to 62 °C.
The molecule `O=[N+]([O-])c1cc(-c2nc3n(c2Cl)CCCC3)c(Cl)cc1Cl` registered a melting point of 111 to 112 °C.
For `CC1(C)Oc2cc(C(=O)O)sc2[C@@H](N2CCCCC2=O)[C@@H]1O` (relative stereo) the value was 268 to 270 °C.
For `CC(=O)Oc1cnccc1CCCOc1cccnc1Oc1cccc(Cl)c1` the value was 107 to 126 °C.
For `COc1ccc2c(c1)cc(CO)n2C` the value was 158 °C; for `ON=C(c1ccccc1)c1nsc2nc3ccccc3n12`, 247 °C.
`COC(=O)Nc1cn2nc(OCc3cc(OC)ccc3OC)ccc2n1` returned a melting point of 228 to 230 °C.
For `CSc1cc(C)nc(SC)c1NC(=O)CN1CCN(CCSc2nc3ccccc3[nH]2)CC1` the value was 96 to 97 °C.
For `COc1nc(NC(=O)NS(=O)(=O)c2cccc3cccnc23)nc(OC)n1` the value was 151 to 153 °C; for `COc1cc(C(=O)c2ccccc2N)ccn1`, 82 to 86 °C.
For `CCOC(=O)c1oc(SC)c2c1CCc1sc(-c3ccccc3)nc1-2` the value was 170 to 171 °C; for `NS(=O)(=O)c1ccc(-c2noc(-c3cnn4c(C(F)(F)F)cc(-c5cccc(C(F)(F)F)c5)nc34)n2)cc1`, 300 °C; for `CCOCc1nc2c(N)nc3ccccc3c2n1CC1(O)CCOCC1`, 212 to 214 °C.
The molecule `COC1=CC(OC)(OC)C(I)C=C1C(=O)OCC(=O)c1ccccc1` (stereo unspecified) had a melting point of 146 °C.
Molecule `Cc1ccc(N(C)C2CCN(CC(=O)Nc3ccc(NS(C)(=O)=O)cc3)CC2)cc1` yielded a melting point of 128 to 130 °C.
For `O=C1Nc2ccccc2N(C(=O)CN2C(=O)c3ccccc3C2=O)C2CCCC12` (stereo unspecified) the value was 207 to 208 °C; for `O=C(Nc1cc(Cl)c(N2CCOCC2)c(Cl)c1)c1ccc(F)c(OCc2cccnc2)c1`, 209 to 211 °C; for `COc1ccc(-c2nn(Cc3ccncc3)c(=O)cc2-c2ccncc2)cc1`, 193 to 194 °C.
For `COc1ccc(-c2ccnc3c(C(=O)c4cccs4)cnn23)c(OC)c1` the value was 146 to 148 °C; for `CC(=O)CC(=O)Nc1cccc(OC(=O)NC(C)C)c1`, 161 °C.
For `CCCCOc1cc(C=CC(=O)N2CCN(c3ccc(NC(=N)c4cccs4)cc3)CC2)cc(OCCCC)c1O` the value was 65 to 68 °C; for `CNc1c(C#N)cnn1-c1ccc(Cl)c(Cl)c1Cl`, 163 to 165 °C.
The molecule `CCCc1c(OCCCBr)ccc(C(C)=O)c1O` displayed a melting point of 38 to 40 °C.
In turn, `CCCCNS(=O)(=O)c1cc(C(=O)O)cc(NCc2ccccc2)c1Oc1ccccc1` showed a melting point of 212 °C.
Molecule `O=C1NCc2c1cccc2-c1cccc2cc(Cc3cccc(C(F)(F)F)c3)sc12` gave a melting point of 195 to 196 °C.
For `CNCC(O)c1cc(C)oc1C` (stereo unspecified) the value was 76 to 77 °C; for `CC(C)(C)OC(=O)C[C@@H](CC1CCCC1)C(=O)N1CCCCC1`, 38 to 40 °C; for `CC(C)(C)c1nnc2ccc(OCCCN3CCC(OC(c4ccccc4)c4ccccc4)CC3)nn12`, 125 to 127 °C.
For `COc1cc2c(cc1Br)-c1cc3c(n1CC2)C(=O)N(C(C)(C)C)CCC(C)(C)C3` the value was 175 to 177 °C; for `CS(=O)(=O)OC[C@H]1CN(c2ccc(C3=CCSCC3)c(F)c2)C(=O)O1`, 138 to 141 °C; for `O=[N+]([O-])c1cc(C(F)(F)F)c(Cl)c([N+](=O)[O-])c1NC1CC1`, 86 to 87 °C.
In turn, `CCN(c1nc(C)cc(N2CCSCC2)n1)c1ccc(C(C)C)cc1I` showed a melting point of 51 to 53 °C.
Consider `CCOC(=O)COc1cc(C=O)ccc1OCc1ccccc1`, for which the melting point is 36 to 43 °C.
For `COc1cccc(C23CCN(C)CC2Cc2c([nH]c(C(=O)NCc4ccccc4)c2C)C3)c1` (stereo unspecified) the value was 162 to 164 °C; for `Cc1c(Cl)cccc1-n1c(=O)[nH]c2cccnc21`, 224 to 225 °C; for `CC(CO)(CO)OCc1ccccc1F`, 74.5 to 75 °C.
For `N#Cc1nc(-c2cc(Cl)cc(Cl)c2Cl)c(N)nc1N` the value was 277 to 279 °C; for `COc1ccc(N=C(CCc2ccccc2Cl)c2ccccc2)cc1`, 83.5 to 84.5 °C; for `CCOC(=O)c1cn(-c2nccs2)c2nc(Cl)cc(Cl)c2c1=O`, 226 to 227 °C.
For `COCCOc1ccc(/C=C/C(=O)NS(=O)(=O)c2ccccn2)c(Oc2ncc(C(F)(F)F)cc2Cl)c1` the value was 164 to 165 °C; for `CC(C)(C)OC(=O)c1ccc(N2CC(CO)OC2=O)cc1F` (stereo unspecified), 148 to 149 °C; for `CCn1cc(C(=O)O)c(=O)c2cc(F)c(N3CCNC(c4ccc(Cl)s4)C3)cc21` (stereo unspecified), 232 to 234 °C.
On to `Cc1cccc(P(c2cccs2)c2cccs2)c1-c1c(C)cccc1P(c1cccs1)c1cccs1`, for which the melting point was 177 to 178 °C.
For `Cc1cccc(C)c1N(CCCc1cccnc1)C(=O)Cn1ccnc1C` the value was 89 to 90 °C.
The molecule `CC(=O)OCCc1ccc(NC(=O)CCCCl)cc1` gave a melting point of 83 °C.
